Test results taken from PubChem BioAssay AID1963853 (Molecular Pharmacology Branch, DTP, NCI, 2024).

Test system: 266295-075-R-J1-PDC spheroid viability
Experiment: Anticancer human tumor 266295-075-R-J1-PDC patient-derived head and neck squamous carcinoma cell line growth inhibition [POLQ]
Settings: spheroids with HUVEC and MSC; for IC50: curve of first compound; for viability, T/C: stronger effect = lower value
Outline: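 Growth inhibition in 3D: complex spheroids (tumor PDC, HUVEC, MSC) treated with POLQ inhibitor combinations; where Cmax unknown, highest tested concentration 10 microM, except SN-38 at 1 microM.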

[1] = second compound 0.0316 µM, first compound 0.0316 µM
[2] = second compound 0.0316 µM, first compound 0.1 µM
[3] = second compound 0.0316 µM, first compound 0.316 µM
[4] = second compound 0.0316 µM, first compound 1 µM
[5] = second compound 0.0316 µM, first compound 3.16 µM
[6] = second compound 0.0316 µM, first compound 10 µM
[7] = second compound 0.1 µM, first compound 0.0316 µM
[8] = second compound 0.1 µM, first compound 0.1 µM
[9] = second compound 0.1 µM, first compound 0.316 µM
[10] = second compound 0.1 µM, first compound 1 µM
[11] = second compound 0.1 µM, first compound 3.16 µM
[12] = second compound 0.1 µM, first compound 10 µM
[13] = second compound 0.316 µM, first compound 0.0316 µM
[14] = second compound 0.316 µM, first compound 0.1 µM
[15] = second compound 0.316 µM, first compound 0.316 µM
[16] = second compound 0.316 µM, first compound 1 µM
[17] = second compound 0.316 µM, first compound 3.16 µM
[18] = second compound 0.316 µM, first compound 10 µM
[19] = second compound 1 µM, first compound 0.0316 µM
[20] = second compound 1 µM, first compound 0.1 µM
[21] = second compound 1 µM, first compound 0.316 µM
[22] = second compound 1 µM, first compound 1 µM
[23] = second compound 1 µM, first compound 3.16 µM
[24] = second compound 1 µM, first compound 10 µM
[25] = second compound 3.16 µM, first compound 0.0316 µM
[26] = second compound 3.16 µM, first compound 0.1 µM
[27] = second compound 3.16 µM, first compound 0.316 µM
[28] = second compound 3.16 µM, first compound 1 µM
[29] = second compound 3.16 µM, first compound 3.16 µM
[30] = second compound 3.16 µM, first compound 10 µM
[31] = second compound 10 µM, first compound 0.0316 µM
[32] = second compound 10 µM, first compound 0.1 µM
[33] = second compound 10 µM, first compound 0.316 µM
[34] = second compound 10 µM, first compound 1 µM
[35] = second compound 10 µM, first compound 3.16 µM
[36] = second compound 10 µM, first compound 10 µM
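Note: spheroids exposed to compounds for seven days before readout.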

C=CC(=O)N1CCN(c2nc(=O)n(-c3c(C)ccnc3C(C)C)c3nc(-c4c(O)cccc4F)c(F)cc23)C(C)C1 (stereo not drawn) + Cc1cccc(N(C)C(=O)C2C(O)CCN2c2nc(C)cc(C(F)(F)F)c2C#N)c1
IC50 (second compound 0.0316 µM): > 10 µM
IC50 (second compound 0.1 µM): > 10 µM
IC50 (second compound 0.316 µM): > 10 µM
IC50 (second compound 1 µM): > 10 µM
IC50 (second compound 3.16 µM): > 10 µM
IC50 (second compound 10 µM): > 10 µM
viability, T/C [1]: 95.2%
viability, T/C [2]: 89.3%
viability, T/C [3]: 97%
viability, T/C [4]: 110%
viability, T/C [5]: 140%
viability, T/C [6]: 126%
viability, T/C [7]: 91.5%
viability, T/C [8]: 92.7%
viability, T/C [9]: 96.2%
viability, T/C [10]: 115%
viability, T/C [11]: 123%
viability, T/C [12]: 131%
viability, T/C [13]: 93.6%
viability, T/C [14]: 116%
viability, T/C [15]: 100%
viability, T/C [16]: 126%
viability, T/C [17]: 116%
viability, T/C [18]: 121%
viability, T/C [19]: 91.6%
viability, T/C [20]: 108%
viability, T/C [21]: 112%
viability, T/C [22]: 103%
viability, T/C [23]: 125%
viability, T/C [24]: 130%
viability, T/C [25]: 99.5%
viability, T/C [26]: 105%
viability, T/C [27]: 118%
viability, T/C [28]: 133%
viability, T/C [29]: 126%
viability, T/C [30]: 116%
viability, T/C [31]: 117%
viability, T/C [32]: 108%
viability, T/C [33]: 128%
viability, T/C [34]: 120%
viability, T/C [35]: 132%
viability, T/C [36]: 105%

CC(C)n1c(=O)n(C)c2cnc3cc(F)c(-c4ccc(OCCCN5CCCCC5)nc4)cc3c21 + Cc1cccc(N(C)C(=O)C2C(O)CCN2c2nc(C)cc(C(F)(F)F)c2C#N)c1
IC50 (second compound 0.0316 µM): > 10 µM
IC50 (second compound 0.1 µM): > 10 µM
IC50 (second compound 0.316 µM): > 10 µM
IC50 (second compound 1 µM): > 10 µM
IC50 (second compound 3.16 µM): > 10 µM
IC50 (second compound 10 µM): > 10 µM
viability, T/C [1]: 101%
viability, T/C [2]: 127%
viability, T/C [3]: 95.2%
viability, T/C [4]: 73.6%
viability, T/C [5]: 93.2%
viability, T/C [6]: 60.7%
viability, T/C [7]: 99.1%
viability, T/C [8]: 111%
viability, T/C [9]: 98.9%
viability, T/C [10]: 83.4%
viability, T/C [11]: 73.5%
viability, T/C [12]: 69.8%
viability, T/C [13]: 125%
viability, T/C [14]: 118%
viability, T/C [15]: 96.8%
viability, T/C [16]: 90.8%
viability, T/C [17]: 88.1%
viability, T/C [18]: 61.9%
viability, T/C [19]: 103%
viability, T/C [20]: 90.8%
viability, T/C [21]: 95.3%
viability, T/C [22]: 91.3%
viability, T/C [23]: 78.4%
viability, T/C [24]: 60.3%
viability, T/C [25]: 91.8%
viability, T/C [26]: 95.4%
viability, T/C [27]: 88.8%
viability, T/C [28]: 90.8%
viability, T/C [29]: 80.2%
viability, T/C [30]: 64.9%
viability, T/C [31]: 97.3%
viability, T/C [32]: 103%
viability, T/C [33]: 96.5%
viability, T/C [34]: 100%
viability, T/C [35]: 78.9%
viability, T/C [36]: 67.1%

CC1COCCN1c1cc(-c2ccnn2C)c2ccnc(-c3ccn[nH]3)c2n1 (stereo not drawn) + Cc1cccc(N(C)C(=O)C2C(O)CCN2c2nc(C)cc(C(F)(F)F)c2C#N)c1
IC50 (second compound 0.0316 µM): 1.64 µM
IC50 (second compound 0.1 µM): 1.32 µM
IC50 (second compound 0.316 µM): 1.4 µM
IC50 (second compound 1 µM): 1.15 µM
IC50 (second compound 3.16 µM): 1.87 µM
IC50 (second compound 10 µM): 1.78 µM
viability, T/C [1]: 93.8%
viability, T/C [2]: 69.7%
viability, T/C [3]: 68.4%
viability, T/C [4]: 56%
viability, T/C [5]: 41%
viability, T/C [6]: 40%
viability, T/C [7]: 87.2%
viability, T/C [8]: 68.4%
viability, T/C [9]: 60.9%
viability, T/C [10]: 52.6%
viability, T/C [11]: 45.2%
viability, T/C [12]: 40.9%
viability, T/C [13]: 75.6%
viability, T/C [14]: 78.2%
viability, T/C [15]: 68.9%
viability, T/C [16]: 50.7%
viability, T/C [17]: 47.4%
viability, T/C [18]: 36.9%
viability, T/C [19]: 89%
viability, T/C [20]: 81.6%
viability, T/C [21]: 69.4%
viability, T/C [22]: 48.4%
viability, T/C [23]: 46.3%
viability, T/C [24]: 38.1%
viability, T/C [25]: 81.3%
viability, T/C [26]: 78.4%
viability, T/C [27]: 66.8%
viability, T/C [28]: 54.9%
viability, T/C [29]: 46.6%
viability, T/C [30]: 36.7%
viability, T/C [31]: 87.4%
viability, T/C [32]: 90.1%
viability, T/C [33]: 69.7%
viability, T/C [34]: 56.3%
viability, T/C [35]: 46.1%
viability, T/C [36]: 38%

COc1ccc([C@@H](O)c2cc(-c3ncnc4cc(N5CCOCC5)ccc34)c(F)cc2Cl)nn1 + Cc1cccc(N(C)C(=O)C2C(O)CCN2c2nc(C)cc(C(F)(F)F)c2C#N)c1
IC50 (second compound 0.0316 µM): 3.95 µM
IC50 (second compound 0.1 µM): 2.46 µM
IC50 (second compound 0.316 µM): 2.64 µM
IC50 (second compound 1 µM): 2.7 µM
IC50 (second compound 3.16 µM): 3.94 µM
IC50 (second compound 10 µM): 5.67 µM
viability, T/C [1]: 102%
viability, T/C [2]: 82.1%
viability, T/C [3]: 73.5%
viability, T/C [4]: 73.9%
viability, T/C [5]: 47.3%
viability, T/C [6]: 40.5%
viability, T/C [7]: 90.2%
viability, T/C [8]: 86.5%
viability, T/C [9]: 81.5%
viability, T/C [10]: 71%
viability, T/C [11]: 43%
viability, T/C [12]: 39.9%
viability, T/C [13]: 101%
viability, T/C [14]: 112%
viability, T/C [15]: 91.4%
viability, T/C [16]: 62.7%
viability, T/C [17]: 53.2%
viability, T/C [18]: 38.9%
viability, T/C [19]: 81.8%
viability, T/C [20]: 94.2%
viability, T/C [21]: 69.3%
viability, T/C [22]: 76.6%
viability, T/C [23]: 45.3%
viability, T/C [24]: 39.1%
viability, T/C [25]: 85.3%
viability, T/C [26]: 80.9%
viability, T/C [27]: 76%
viability, T/C [28]: 66.2%
viability, T/C [29]: 53.3%
viability, T/C [30]: 36.5%
viability, T/C [31]: 115%
viability, T/C [32]: 92.4%
viability, T/C [33]: 89%
viability, T/C [34]: 69%
viability, T/C [35]: 53.7%
viability, T/C [36]: 44.8%
